According to publication PMC10487437 (International Journal of Molecular Sciences, 2023):
Primed or numbered codes have the meaning given here. * marks the point of attachment. Dabcyl′ = CN(C)c1ccc(/N=N/c2ccc(C(=O)*)cc2)cc1; EDANS = O=S(=O)(O)c1cccc2c(NCCN*)cccc12

How the values were obtained:
[1] = molecular target: 26S proteasome (mouse (endogenous in brain)) (UniProt Q60692)
[2] = molecular target: 20S proteasome (mouse (endogenous in brain)) (UniProt Q60692)
[3] = system: 26S proteasome from murine brain; test: Specific peptidase activity of 26S proteasome with additives (Table S1)
[4] = system: T1, 20S proteasome from murine brain; test: Specific peptidase activity of 20S proteasome with additives (Table S1); format: biochemical, mouse; details: for Specific peptidase activity using Suc-LLVY-AMC: 20S plus additive: 0.5 µM Bortezomib, 0.1 µM MG132, 0.02% SDS or 11S (1:2, mole:mole), 20S alone 2.37 ± 0.13
T1 construct: from tissue; host or cells: mouse brain
Source text: Characterization of puriﬁed proteasomes
teasomes. […] To conﬁrm that
cathepsin B [48] (Table S1).
reaction mixture for both 20S and 26S.
Table S1. Peptidase activity of the samples of 20S and 26S proteasome from murine brain.
The molar ratio between the proteasome

[5] = system: T2, 20S proteasome; test: Determination of proteolysis sites of oligoglutamine peptides by LC-MS; format: biochemical, mouse; details: for Products of proteasomal hydrolysis identified: LC-MS, identical for all proteasome complexes (20S, 20S+11S, 26S, 26S+11S); for Peak of the starting substrate after incubation with 20S proteasome: incubation for 48 h, UPLC C18, UV-VIS and MS detection
T2 construct: from tissue; host or cells: mouse brain
Procedure: Next, we determined proteolysis sites for our oligoglutamine-containing peptides using liquid chromatography-mass spectrometry (LC-MS). The chromatogram of the Dabcyl-KQ5GD-EDANS solution in DMSO (Figure 3a) has a peak at the retention time of 1.69 min. According to the mass spectrum (Figure 3b), this peak corresponds to the Dabcyl-KQ5GD-EDANS (M = 1458.69 g/mole; z = 2; m/z = 729) molecule. Another fragment with m/z = 252 corresponds to the Dabcyl- (C15H14N3O), and the one with m/z = 380 corresponds to the DabcylK- (C21H26N5O2) fragment. These peaks are likely to arise due to fragmentation in a mass spectrometer since, upon hydrolysis, the masses of these fragments would be 269 and 397, respectively. After the incubation with proteasome for 48 h, the peak at 1.69 min disappeared (Figure 3c), and two other peaks appeared with retention times equal to 1.45 and 1.72 min. These peaks were assigned to the N- and C-ends of the peptide on the basis of the difference in the absorption spectra of the Dabcyl and EDANS moieties. […] Other products were not detected either at short (15 min) or longer hydrolysis times (72 h).
Next, we identified cleavage sites for the substrate with a longer oligoglutamine fragment (Figure 4). The peak with a retention time of 1.06 min (Figure 4a) that corresponds to the Dabcyl-KQ10PPD-EDANS (M = 2236.38 g/mole; z = 2; m/z = 1118) molecule (Figure 4b) disappeared after the substrate was incubated with the 20S proteasome for 48 h. Instead, two other peaks appeared, at 1.14 and 1.37 min (Figure 4c). According to UV spectra for both peaks, the fragment at 1.14 min had Dabcyl chromophore, and the second fragment carried EDANS fluorophore. Finally, according to mass calculation, the first product was attributed to the Dabcyl-KQ2 fragment (Figure 4d) and the second one to the Q7PPD-EDANS moiety (Figure 4e).
Peptide samples were analyzed on an Acquity UPLC system (Waters, Milford, MA, USA) connected to a PDA detector and TQD mass spectrometer (Waters). […] The gradient program was as follows: from 5%B to 50%B per 3 min, from 50%B to 5%B per 0.1 min, at a flow rate of 0.5 mL/min and a temperature of 35 °C. Solvent A: 20 mM formic acid in acetonitrile/water (1:20)/Solvent B: 20 mM formic acid in acetonitrile. Instrument settings and measuring parameters TQD were as follows: capillary voltage 3.5 kV; cone voltage 25 V; source temperature 120 °C; desolvation temperature 450 °C; cone gas flow 50 L/h; desolvation gas flow 800 L/h; MS1 scanning mass from 50 to 1500 Da; positive polarity. The PDA detector range was 220–500 nm. The resulting raw data were analyzed using the MassLynx software (version 4.1 SCN919).

[6] = system: T3, 26S proteasome; test: Apparent kinetic parameters of FRET substrate hydrolysis by 26S proteasome; format: biochemical, mouse; details: substrate 5 to 100 µM, 37 °C, means ± SEM of three independent experiments run in duplicate; for Km: Michaelis-Menten, fluorescence 340/490 nm, 1 h
T3 construct: from tissue; host or cells: mouse brain

[7] = system: T4, 20S+11S; test: Apparent kinetic parameters of FRET substrate hydrolysis by 20S+11S complex; format: biochemical, mouse; details: for Km / Vmax·10^−2: apparent, 20S+11S, molar ratio 1:4, substrate 5 to 100 µM, 37 °C, means ± SEM of three independent experiments run in duplicate; for Km: Michaelis-Menten, fluorescence 340/490 nm, 1 h; for Vmax (+11S)/Vmax: ratio of Vmax by 20S+11S to Vmax by 20S, proteasome:11S 1:4
T4 construct: from tissue; host or cells: mouse brain

[8] = system: T5, 26S+11S; test: Apparent kinetic parameters of FRET substrate hydrolysis by 26S+11S complex; format: biochemical, mouse; details: for Km / Vmax·10^−2: apparent, 26S+11S, molar ratio 1:4, substrate 5 to 100 µM, 37 °C, means ± SEM of three independent experiments run in duplicate; for Km: Michaelis-Menten, fluorescence 340/490 nm, 1 h; for Vmax (+11S)/Vmax: ratio of Vmax by 26S+11S to Vmax by 26S, proteasome:11S 1:4
T5 construct: from tissue; host or cells: mouse brain

[9] = system: T2, 20S proteasome; test: Apparent kinetic parameters of FRET substrate hydrolysis by 20S proteasome; format: biochemical, mouse; details: substrate 5 to 100 µM, 37 °C, means ± SEM of three independent experiments run in duplicate; for Km: Michaelis-Menten, fluorescence 340/490 nm, 1 h
[10] = means ± SEM of three independent experiments run in duplicate

Chain of 11S regulator (PA28αβ) (P97371 whole entry): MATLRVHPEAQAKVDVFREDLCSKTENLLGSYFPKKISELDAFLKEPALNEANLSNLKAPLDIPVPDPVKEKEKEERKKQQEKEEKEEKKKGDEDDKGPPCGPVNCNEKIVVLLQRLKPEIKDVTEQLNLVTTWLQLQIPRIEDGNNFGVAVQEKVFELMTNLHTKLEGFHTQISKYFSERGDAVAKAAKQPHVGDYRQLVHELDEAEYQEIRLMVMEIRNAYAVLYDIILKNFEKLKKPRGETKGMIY
Chain of 11S regulator (PA28αβ) (P97372 whole entry): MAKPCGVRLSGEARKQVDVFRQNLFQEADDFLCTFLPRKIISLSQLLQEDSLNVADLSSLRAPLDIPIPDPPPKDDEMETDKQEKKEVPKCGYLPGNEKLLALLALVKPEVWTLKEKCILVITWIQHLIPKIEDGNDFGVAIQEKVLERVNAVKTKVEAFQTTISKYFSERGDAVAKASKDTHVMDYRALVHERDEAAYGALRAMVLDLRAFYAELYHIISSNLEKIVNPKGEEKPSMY
Chain of 20S proteasome (mouse (endogenous in brain)) (Q60692 whole entry, looked up): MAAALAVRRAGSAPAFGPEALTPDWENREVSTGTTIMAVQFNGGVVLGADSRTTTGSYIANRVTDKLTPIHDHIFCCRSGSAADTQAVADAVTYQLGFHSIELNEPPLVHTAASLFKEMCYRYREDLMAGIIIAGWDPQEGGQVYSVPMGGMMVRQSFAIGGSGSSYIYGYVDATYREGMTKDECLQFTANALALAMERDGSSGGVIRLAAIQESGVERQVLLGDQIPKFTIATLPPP
Chain of 26S proteasome (mouse (endogenous in brain)) (Q60692 whole entry, looked up): as above

Km [6]	Vmax·10^−2 [6]	Km [7]	Vmax·10^−2 [7]	Vmax (+11S)/Vmax [7]	Km [8]	Vmax·10^−2 [8]	Vmax (+11S)/Vmax [8]	Km [9]	Vmax·10^−2 [9]	apparent Km of hydrolysis by 26S+11S (proteasome:11S 1:4) [1]	apparent Km of hydrolysis by the 26S proteasome [1]	apparent Km of hydrolysis by 20S+11S (proteasome:11S 1:4) [2]	apparent Km of hydrolysis by the 20S proteasome [2]	Molecule	other results
														11S regulator (PA28αβ) (from UniProt P97371 1-249; P97372 1-239) (complex)	Vmax (+11S)/Vmax of hydrolysis of Dabcyl-KQ5GD-EDANS by the 26S proteasome, proteasome:11S 1:4 [1]: 1; Vmax (+11S)/Vmax of hydrolysis of Dabcyl-KQ10GD-EDANS by the 26S proteasome, proteasome:11S 1:4 [1]: 1.4; Vmax (+11S)/Vmax of hydrolysis of Dabcyl-KQ10PPD-EDANS by the 26S proteasome, proteasome:11S 1:4 [1]: 2; Vmax (+11S)/Vmax of hydrolysis of Dabcyl-KQ5GD-EDANS by the 20S proteasome, proteasome:11S 1:4 [2]: 2.7; Vmax (+11S)/Vmax of hydrolysis of Dabcyl-KQ10GD-EDANS by the 20S proteasome, proteasome:11S 1:4 [2]: 1.5; Vmax (+11S)/Vmax of hydrolysis of Dabcyl-KQ10PPD-EDANS by the 20S proteasome, proteasome:11S 1:4 [2]: 2.3
														11S: 11S proteasomal regulator (PA28) consisting of α/β subunits, isolated from mouse brain	Specific peptidase activity using Ac-RLR-AMC ([3]; 26S+11S (1:2, mole:mole), 26S alone 1.92 ± 0.06, means ± SEM of three independent experiments run in duplicate): 2.5 ± 0.2 nM/min/µg; Specific peptidase activity using Z-LLE-AMC ([3]; 26S+11S (1:2, mole:mole), 26S alone 5.4 ± 0.1, means ± SEM of three independent experiments run in duplicate): 6.7 ± 0.5 nM/min/µg; Specific peptidase activity using Suc-LLVY-AMC [4, 10]: 8.8 ± 0.4 nM/min/µg; Specific peptidase activity using Z-LLE-AMC ([4]; 20S+11S (1:2, mole:mole), 20S alone 1.14 ± 0.02, means ± SEM of three independent experiments run in duplicate): 5.2 ± 0.1 nM/min/µg; Specific peptidase activity using Ac-RLR-AMC ([4]; 20S+11S (1:2, mole:mole), 20S alone 2.78 ± 0.07, means ± SEM of three independent experiments run in duplicate): 8.4 ± 0.2 nM/min/µg
														CCCCCCCCCCCCOS(=O)(=O)[O-].[Na+] [SDS]	Effect on the 26S proteasome activity ([3]; in the presence of 0.02% SDS): completely inhibited; Specific peptidase activity using Suc-LLVY-AMC [4, 10]: 34 ± 6 nM/min/µg; Increase of the activity of the 20S proteasome ([4]; in the presence of 0.02% SDS): 13–15 times
54 ± 10 µM	2.0 ± 0.3 10^−2 μM·min^−1	60 ± 8 µM	6.1 ± 1.4 10^−2 μM·min^−1	2.7	52 ± 10 µM	2.1 ± 0.3 10^−2 μM·min^−1	1.0	52 ± 8 µM	2.3 ± 0.3 10^−2 μM·min^−1					Dabcyl-KQ5GD-EDANS [internally quenched fluorogenic FRET substrate with five glutamine residues, EDANS-Dabcyl pair]	Products of proteasomal hydrolysis identified [5]: Dabcyl-KQ2 and QGD-EDANS; Peak of the starting substrate after incubation with 20S proteasome [5]: disappeared
18 ± 2 µM	0.09 ± 0.01 10^−2 μM·min^−1	64 ± 14 µM	0.92 ± 0.15 10^−2 μM·min^−1	1.5	38 ± 9 µM	0.12 ± 0.03 10^−2 μM·min^−1	1.4	40 ± 3 µM	0.61 ± 0.02 10^−2 μM·min^−1					Dabcyl-KQ10GD-EDANS [internally quenched fluorogenic FRET substrate with ten glutamine residues, EDANS-Dabcyl pair]	
24.5 ± 10 µM	2.3 ± 0.2 10^−2 μM·min^−1	5.3 ± 1.3 µM	1.66 ± 0.07 10^−2 μM·min^−1	2.3	20 ± 4.6 µM	4.73 ± 0.35 10^−2 μM·min^−1	2.0	8.2 ± 1.5 µM	0.73 ± 0.03 10^−2 μM·min^−1					Dabcyl-KQ10PPD-EDANS	Products of proteasomal hydrolysis identified [5]: Dabcyl-KQ2 and Q7PPD-EDANS; Peak of the starting substrate after incubation with 20S proteasome [5]: disappeared
										38 µM	18 µM	64 µM	40 µM	{Dabcyl′}-KQQQQQQQQQQGD-{EDANS} (SMILES CN(C)c1ccc(/N=N/c2ccc(C(=O)N[C@@H](CCCCN)C(=O)N[C@@H](CCC(N)=O)C(=O)N[C@@H](CCC(N)=O)C(=O)N[C@@H](CCC(N)=O)C(=O)N[C@@H](CCC(N)=O)C(=O)N[C@@H](CCC(N)=O)C(=O)N[C@@H](CCC(N)=O)C(=O)N[C@@H](CCC(N)=O)C(=O)N[C@@H](CCC(N)=O)C(=O)N[C@@H](CCC(N)=O)C(=O)N[C@@H](CCC(N)=O)C(=O)NCC(=O)N[C@@H](CC(=O)O)C(=O)NCCNc3cccc4c(S(=O)(=O)O)cccc34)cc2)cc1) [Dabcyl-KQ10GD-EDANS]	
										52 µM	54 µM	60 µM	52 µM	{Dabcyl′}-KQQQQQGD-{EDANS} (SMILES CN(C)c1ccc(/N=N/c2ccc(C(=O)N[C@@H](CCCCN)C(=O)N[C@@H](CCC(N)=O)C(=O)N[C@@H](CCC(N)=O)C(=O)N[C@@H](CCC(N)=O)C(=O)N[C@@H](CCC(N)=O)C(=O)N[C@@H](CCC(N)=O)C(=O)NCC(=O)N[C@@H](CC(=O)O)C(=O)NCCNc3cccc4c(S(=O)(=O)O)cccc34)cc2)cc1) [Dabcyl-KQ5GD-EDANS]	
										20 µM	24.5 µM	5.3 µM	8.2 µM	{Dabcyl′}-KQQQQQQQQQQPPD-{EDANS} (SMILES CN(C)c1ccc(/N=N/c2ccc(C(=O)N[C@@H](CCCCN)C(=O)N[C@@H](CCC(N)=O)C(=O)N[C@@H](CCC(N)=O)C(=O)N[C@@H](CCC(N)=O)C(=O)N[C@@H](CCC(N)=O)C(=O)N[C@@H](CCC(N)=O)C(=O)N[C@@H](CCC(N)=O)C(=O)N[C@@H](CCC(N)=O)C(=O)N[C@@H](CCC(N)=O)C(=O)N[C@@H](CCC(N)=O)C(=O)N[C@@H](CCC(N)=O)C(=O)N3CCC[C@H]3C(=O)N3CCC[C@H]3C(=O)N[C@@H](CC(=O)O)C(=O)NCCNc3cccc4c(S(=O)(=O)O)cccc34)cc2)cc1) [Dabcyl-KQ10PPD-EDANS]	
